Assays:
Format in all cases: cell-based
[1] = tested on: U373M; test: MTT assay for 7-day toxicity, U373M glioma cells (stably transfected with MGMT, MGMT+); conditions: Glioma cell, 168 h, 7 day MTT assay, glioma line U373M
Protocol: (§1) The cell culture techniques were carried out in a Class II microbiological safety cabinet which was swabbed with 70% IMS in distilled water before each use. Glioma cells were routinely cultured in Costar tissue culture flasks in RPMI 1640 liquid medium (containing 0.3 g/L L-glutamine and 2 g/L sodium bicarbonate) supplemented with 10% heat inactivated FBS (55-59° C.) for 1 hour to denature complement proteins which would otherwise evoke a cellular immune response resulting in cell lysis, 1% non-essential amino acids, 50 μg/mL gentamicin and 400 μg/mL G418 (vector selection reagent). Colorectal and melanoma cells were maintained in RPMI 1640 supplemented with 10% FBS. MRC-5 cells were cultured in EMEM+10% FBS, 1% pen/strep, 1% non-essential amino acids, 1% HEPES (1M) and 1% sodium bicarbonate.
(§2) Cells were grown at 37° C. in a humidified incubator in an atmosphere comprising 95% air/5% CO2. Cells were sub-cultured when growth exceeded approximately 80% confluence, normally twice weekly. The medium was aspirated from the flask and approximately 0.8 mL trypsin-EDTA 1× solution added. The cells were re-incubated at 37° C. until they had visibly detached from the flask. The cells were re-suspended in 5 mL medium and 0.5-1 mL was transferred to a new flask (25 cm^2) with 7 mL culture medium. The cells were further incubated at 37° C. To minimize phenotypic drift, cells were disposed of once they had been subcultured 30 times. New batches of cells were thawed rapidly in 37° C. water bath once taken from liquid nitrogen storage and re-suspended in 10 mL of culture medium in a 25 cm^2 flask. Cells were passaged twice to allow normal growth to resume prior to use in experiments.
(§3) Most test compounds, including temozolomide, were prepared as 100 mM stock solutions in DMSO and stored at −20° C. for not more than 6 months.
(§4) MTT Assay for 7-Day Toxicity Assay
(§5) This assay was first described in Mosmann, T., 1983, “Rapid colorimetric assay for cellular growth and survival: Application to proliferation and cytotoxicity assays”, Journal of Immunological Methods, Vol. 65, Nos. 1-2, pp. 55-63.
(§6) Glioma cell lines, SNB19 and U373, both stably transfected with MGMT (i.e., SNB19M and U373M) or their respective vector controls (i.e., SNB19V and U373V); colorectal carcinoma cell lines, HCT116, HT29, and DLD1; melanoma cell line, SKMEL-28; breast cell line, MCF-7; and normal human fetal lung fibroblast cell line, MRC-5; were used at 60-80% confluence, during the logarithmic phase of growth.
(§7) Following harvesting with trypsin/EDTA, cells in suspension were gently syringed through a 23 gauge needle to obtain a near-single cell suspension. Cells were then seeded into 96-well plates at the desired density in 180 μL culture medium if only one test compound was to be added, or in 160 μL if two test compounds were to be added in combination. Cells were allowed to attach overnight by incubation at 37° C. in 95% air/5% CO2. For the 7 day assay, the cell seeding densities for the different cell lines were as follows: SNB19V, SNB19M: 650 cells/well; U373V, U373M: 650 cells/well; SNB19VR, U373VR: 650 cells/well; HCT116, DLD-1, SKMEL-28, MRC-5, MCF-7: 400 cells/well.
(§8) The two peripheral lanes of each plate were used as blank wells (cell free) and filled with 200 μL of medium in order to minimise medium evaporation from the plate. A separate time zero (T0) plate was set up alongside other plates. Serial dilutions in tissue culture medium of a 100 mM stock of test compound were prepared immediately before each assay to ten times the final concentrations required. 20 μL was added to each well (200 μL total media per well) to achieve final concentrations of 0.5 μM, 1 μM, 5 μM, 10 μM, 50 μM, 100 μM, 500 μM, and 1000 μM. A minimum of four wells received the same test compound concentration. To control wells, including those in the T0 plate, 20 μL of medium was added. […]

[2] = tested on: SNB19V; test: MTT assay for 7-day toxicity, SNB19V glioma cells (vector control, MGMT-); conditions: Glioma cell, 168 h, 7 day MTT assay, glioma line SNB19V
Protocol: as §1, §2, §3, §4, §5, §6, §7, §8

[3] = tested on: U373V; test: MTT assay for 7-day toxicity, U373V glioma cells (vector control, MGMT-); conditions: Glioma cell, 168 h, 7 day MTT assay, glioma line U373V
Protocol: as §1, §2, §3, §4, §5, §6, §7, §8

[4] = tested on: SNB19M; test: MTT assay for 7-day toxicity, SNB19M glioma cells (stably transfected with MGMT, MGMT+); conditions: Glioma cell, 168 h, 7 day MTT assay, glioma line SNB19M
Protocol: as §1, §2, §3, §4, §5, §6, §7, §8

Structure (SMILES)	GI50 [1]	GI50 [2]	GI50 [3]	GI50 [4]
C#CCn1nnc2c(-c3nc(-c4ccccc4)cn3C)ncn2c1=O [WW-052, 8-(1-Methyl-4-phenyl-1H-imidazol-2-yl)-3-(prop-2-ynyl)imidazo[5,1-d][1,2,3,5]tetrazin-4(3H)-one]	< 60 µM	< 45 µM	< 75 µM	< 70 µM
Cn1nnc2c(-c3nc(C(=O)NC(C)(C)C)cs3)ncn2c1=O [WW-009, N-tert-Butyl-2-(3-methyl-4-oxo-3,4-dihydroimidazo[5,1-d][1,2,3,5]tetrazin-8-yl)thiazole-4-carboxamide]	< 60 µM	< 45 µM	< 75 µM	–
COCn1nnc2c(C(=O)Nc3ccccc3)ncn2c1=O [LL-002, 3-(Methoxymethyl)-4-oxo-N-phenyl-3,4-dihydroimidazo[5,1-d][1,2,3,5]tetrazine-8-carboxamide]	52.3 µM	55.3 µM	36.3 µM	43.8 µM
CCc1csc(-c2ncn3c(=O)n(C)nnc23)n1 [WW-003, 8-(4-Ethylthiazol-2-yl)-3-methylimidazo[5,1-d][1,2,3,5]tetrazin-4(3H)-one]	< 60 µM	< 45 µM	< 75 µM	< 70 µM
COCn1nnc2c(/C=C/c3ccc(C#N)cc3)ncn2c1=O [MM-001, (E)-4-(2-(3-(Methoxymethyl)-4-oxo-3,4-dihydroimidazo[5,1-d][1,2,3,5]tetrazin-8-yl)vinyl)benzonitrile]	8.8 µM	9.1 µM	7.7 µM	8.9 µM
C#CCn1nnc2c(-c3nc(-c4ccsc4)cs3)ncn2c1=O [WW-024, 3-(Prop-2-ynyl)-8-(4-(thiophen-3-yl)thiazol-2-yl)imidazo[5,1-d][1,2,3,5]tetrazin-4(3H)-one]	< 60 µM	< 45 µM	< 75 µM	< 70 µM
Cn1nnc2c(-c3ncc[nH]3)ncn2c1=O [WW-047, 8-(1H-Imidazol-2-yl)-3-methylimidazo[5,1-d][1,2,3,5]tetrazin-4(3H)-one]	< 60 µM	< 45 µM	< 75 µM	< 70 µM
C#CCn1nnc2c(-c3nc(-c4ccc5c(c4)OCO5)cs3)ncn2c1=O [WW-026]	< 60 µM	< 45 µM	< 75 µM	< 70 µM
Cn1nnc2c(-c3ncc(-c4ccccc4)o3)ncn2c1=O [WW-038, 3-Methyl-8-(5-phenyloxazol-2-yl)imidazo[5,1-d][1,2,3,5]tetrazin-4(3H)-one]	< 60 µM	< 45 µM	< 75 µM	< 70 µM
C#CCn1nnc2c(-c3nc(-c4cccs4)cs3)ncn2c1=O [WW-029, 3-(Prop-2-ynyl)-8-(4-(thiophen-2-yl)thiazol-2-yl)imidazo[5,1-d][1,2,3,5]tetrazin-4(3H)-one]	< 60 µM	< 45 µM	< 75 µM	< 70 µM
Cn1nnc2c(-c3nc(C(=O)NC4CC4)cs3)ncn2c1=O [WW-008, N-Cyclopropyl-2-(3-methyl-4-oxo-3,4-dihydroimidazo[5,1-d][1,2,3, 5]tetrazin-8-yl)thiazole-4-carboxamide]	< 60 µM	< 45 µM	< 75 µM	< 70 µM
Cn1nnc2c(-c3nc(-c4ccccc4)c[nH]3)ncn2c1=O [WW-049, 3-Methyl-8-(4-phenyl-1H-imidazol-2-yl)imidazo[5,1-d][1,2,3,5]tetrazin-4(3H)-one]	< 60 µM	< 45 µM	< 75 µM	< 70 µM
Cn1nnc2c(-c3nc(C(N)=O)cs3)ncn2c1=O [WW-007, 2-(3-Methyl-4-oxo-3,4-dihydroimidazo[5,1-d][1,2,3, 5]tetrazin-8-yl)thiazole-4-carboxamide]	< 60 µM	< 45 µM	< 75 µM	< 70 µM
Cn1nnc2c(-c3nc4ccccc4s3)ncn2c1=O [WW-058, 8-(Benzo[d]thiazol-2-yl)-3-methylimidazo[5,1-d][1,2,3,5]tetrazin-4(3H)-one]	< 60 µM	< 45 µM	< 75 µM	< 70 µM
Cn1nnc2c(C(N)=O)ncn2c1=O [TMZ, temozolomide, reference compound]	395 µM	45.6 µM	72.9 µM	526 µM
C#CCn1nnc2c(-c3nc(-c4ccc(S(C)(=O)=O)cc4)cs3)ncn2c1=O [WW-025]	< 60 µM	< 45 µM	< 75 µM	< 70 µM
Cn1nnc2c(-c3nc(-c4ccc(F)cc4)cs3)ncn2c1=O [WW-001, 8-(4-(4-Fluorophenyl)thiazol-2-yl)-3-methylimidazo[5,1-d][1,2,3,5]tetrazin-4(3H)-one]	< 60 µM	< 45 µM	< 75 µM	< 70 µM
Cn1nnc2c(-c3nc(C#N)cs3)ncn2c1=O [WW-006, 2-(3-Methyl-4-oxo-3,4-dihydroimidazo[5,1-d][1,2,3,5]tetrazin-8-yl)thiazole-4-carbonitrile]	< 60 µM	< 45 µM	< 75 µM	–
Cn1cc(-c2ccccc2)nc1-c1ncn2c(=O)n(C)nnc12 [WW-051, 3-Methyl-8-(1-methyl-4-phenyl-1H-imidazol-2-yl)imidazo[5,1-d][1,2,3,5]tetrazin-4(3H)-one]	< 60 µM	< 45 µM	< 75 µM	< 70 µM
C#CCn1nnc2c(-c3nc4ccccc4o3)ncn2c1=O [WW-055, 8-(Benzo[d]oxazol-2-yl)-3-(prop-2-ynyl)imidazo[5,1-d][1,2,3,5]tetrazin-4(3H)-one]	< 60 µM	< 45 µM	< 75 µM	< 70 µM
C[S+]([O-])Cn1nnc2c(-c3nc(-c4ccccc4)cs3)ncn2c1=O (centres unmarked) [WW-031, 3-(methylsulfinylmethyl)-8-(4-phenylthiazol-2-yl)imidazo[5,1-d][1,2,3,5]tetrazin-4(3H)-one]	< 60 µM	< 45 µM	< 75 µM	< 70 µM
C#CCn1nnc2c(-c3nc4ccccc4[nH]3)ncn2c1=O [WW-063, 8-(1H-Benzo[d]imidazol-2-yl)-3-(prop-2-ynyl)imidazo[5,1-d][1,2,3,5]tetrazin-4(3H)-one]	< 60 µM	< 45 µM	< 75 µM	< 70 µM
COCn1nnc2c(-c3nc(-c4ccccc4)cs3)ncn2c1=O [WW-016, 3-(Methoxymethyl)-8-(4-phenylthiazol-2-yl)imidazo[5,1-d][1,2,3,5]tetrazin-4(3H)-one]	< 60 µM	–	< 75 µM	< 70 µM
Cn1nnc2c(-c3nc(-c4ccncc4)cs3)ncn2c1=O [WW-013]	< 60 µM	–	< 75 µM	< 70 µM
COCn1nnc2c(-c3ncc(-c4ccc(Br)cc4)o3)ncn2c1=O [WW-039]	< 60 µM	–	< 75 µM	< 70 µM
COCn1nnc2c(-c3nc(-c4nccs4)cs3)ncn2c1=O [WW-015, 8-(2,4′-Bithiazol-2′-yl)-3-(methoxymethyl)imidazo[5,1-d][1,2,3,5]tetrazin-4(3H)-one]	< 60 µM	–	< 75 µM	< 70 µM
C#CCn1nnc2c(-c3ncc(-c4ccccc4)o3)ncn2c1=O [WW-040]	< 60 µM	–	< 75 µM	< 70 µM

From US9024018B2, “3-substituted-8-substituted-3H-imidazo[5,1-d][1,2,3,5]tetrazin-4-one compounds and their use” (Pharminox Limited, priority 2009, dated 2015)
